Measurements reported in patent publication US10854312B2, “Selective peptide antagonists” (BIONIZ, LLC, priority 2013, dated 2020).
Entries after “also recorded” stand apart in the source; their conditions may differ. No end group written: not given here.

How the values were obtained:
Assay type in all cases: cell-based
IL-2, -15 and -9 = test: Inhibition of IL-2, -15 and -9 in human NK92 cell line and ex vivo human T cells
Description: (§1) Human peripheral blood mononuclear cells were purified by the Ficoll-paque gradient centrifugation (GE-Healthcare) and stimulated by PHA (5 μg ml^−1, Sigma) for 48 h, then expanded with IL-2 (0.5 nM, Peprotech) for 48h, and then depleted of non-T cells by the Pan-T cell negative enrichment Ab cocktails (Miltenyi). The purified T cells were then fasted of IL-2 overnight prior to the proliferation assay by the tetrazolium dye method. Four hundred thousand cells (in 200 μl culture) were incubated with the cytokines and BNZ132-1 at the indicated concentrations for 24 h, and 20 μl WST1 reagent (Clontech) was added to each well. After 12 h incubation, OD450 was measured. The assay was performed in triplicate. […] NK 92 cells were cultured in human IL-2. Cells were washed to withdraw IL-2 for overnight and two hundred thousand cells (in 200 μl volume) were incubated with the indicated concentrations of the cytokine and BNZ132-1 for 24 h before 20 μl WST-1 reagent (Clontech) was added to each well to measure proliferative response. Absorbance at 450 nm was read at 6 h after the addition of the WST-1 dye. The assay was performed in triplicate. The assay was performed in triplicate and the figure represents a typical result out of 5 different HAM-TSP patients.
Next, the biochemical aspects of the BNZ132-1 inhibition of target cytokines were investigated. […]

human IL-2 signal = test: Western blot of phosphorylation downstream of IL-2 in human PBMC / peripheral T cells
Description: FIG. 9C presents IL-2 signal in human PBMC was blocked by BNZ132-1. Human PBMCs were prepared (Ficoll-paque), activated (by PHA) expanded (by IL-2), and purified by magnetic negative selection as described in the methodology section. After 24 h of IL-2 depletion, the PBMCs were stimulated by 1 nM IL-2 in the presence or absence of BNZ132-1 (0.5 or 0.1 μM) for 20 min before the cellular protein extraction. Phosphorylation of individual proteins was visualized by phosphor-specific antibodies (Cell Signaling), followed by ECL. Lanes: 1. no stimulation, 2. IL-2 stimulation, 3. IL-2+BNZ132-1 (high dose), 4. IL-2+BNZ132-1 (low dose). In all blots, anti-Vinculin antibody (Sigma) was used to validate nearly-equal protein loading.

mouse IL-4 signal = test: Western blot of phosphorylation downstream of IL-4 in PT-18 cells; conditions: 1 nM mouse IL-4, excess dose of BNZ132-1, 15 min
Description: (§2) PT-18 cells32 were fasted of IL-3 for 12 h prior to stimulation. Cells were stimulated with 1 nM mouse IL-4 or mouse IL-9 in the presence or absence of excess dose of BNZ132-1 ([…]) for 15 min and then cellular proteins were extracted. Phosphorylation of the indicated proteins was detected using phosphor-specific antibodies (Cell signaling), followed by ECL. IL-4 is the only γc-cytokine that induces the phosphorylation of STAT6. Note that only IL-4, but not IL-9, induced the tyrosine-phosphorylation of STAT6. […] Lanes: 1. no stimulation, 2. IL-4, 3. IL-4+BNZ132-1, 4. IL-9, 5. IL-9+BNZ132-1

γc-cytokines = test: Target cytokine spectrum within the γc-family
mouse IL-9 signal = test: Western blot of phosphorylation downstream of IL-9 in PT-18 cells; conditions: 1 nM mouse IL-9, excess dose of BNZ132-1, 15 min
Description: as §2

[1] = system: IL-15 signaling (STAT5, PI3kinase-Akt, MAP-kinase branches); test: Western blot of phosphorylation downstream of IL-15 in PT-18β cells; conditions: 1 nM human IL-15, 0.5 μM BNZ132-1
Description: FIG. 9A-FIG. 9C present comprehensive inhibition by BN132-1 of signaling events caused by target γc-cytokines. […] Cells have been fasted of IL-3 for 12 h and then stimulated with 1 nM human IL-15 (Peprotech) in the presence or absence of 0.5 μM BNZ132-1 for 15 min before extraction of cellular proteins. Phosphorylation of the relevant molecules were detected using antibodies against each phosphor-proteins (Cell Signaling), followed by the ECL technique (Thermo Scientific). Lanes: 1. no stimulation, 2. IL-15 (1 nM), 3. IL-15 (1 nM)+BNZ132-1 (0.5 μM).
Cellular proliferation often represents a combination of several independent signaling pathways, and inhibiting one signaling branch […] the proliferation. […] FIG. 9A-FIG. 9C show comprehensive inhibition of the signal transduction pathways downstream of IL-15/IL-15 receptor system in PT-18 cells by BNZ 132-1. PT-18β cells have been withdrawn of IL-15 for overnight to induce into proliferative quiescence (no-stimulation). To restimulate the cells, 1 nM of IL-15 was added in the presence or absence of BNZ132-1 (0.5 μM). After […], cell lysates were collected and phosphorylation of key mediators of major signaling branches were determined by western blotting.

human IL-2 = test: NK92 cell proliferation assay (WST-1), IL-2; conditions: 24 h
Description: as §1
FIG. 8B, and FIG. 8C show the results of NK92 cell proliferation assay. NK92 cells responded to IL-2 and IL-15. […]

IKEFLQRFIHIVQSIINTS [BNZ132-1]
Ki (IL-2, -15 and -9; approximate, from the inhibitory concentrations (Cheng-Prusoff), read-out: binding affinity of BNZ132-1 to target cells): 10 to 60 nM | IC50 (IL-2, -15 and -9; human NK92 cell line and ex vivo human T cells, read-out: concentration at which IL-2, -15 and -9 are inhibited): 50 to 150 nM | inhibition of IL-2 signal (phosphorylation) (human IL-2 signal; human PBMC/peripheral T cells, 1 nM IL-2, BNZ132-1 0.5 or 0.1 μM, 20 min): comprehensively inhibited; also recorded: blocked | differential inhibition of individual signaling pathways at suboptimal dose (human IL-2 signal; low dose BNZ132-1 (0.1 μM), IL-2, human peripheral T cells): Akt and p38 are more sensitive than Jak3 and STAT5 | inhibition of IL-4 signal transduction (phosphorylation, STAT6) (mouse IL-4 signal): does not interfere; also recorded: not inhibited | γc-cytokines not inhibited (γc-cytokines; IL-4, IL-7 and IL-21): excludes IL-4,-7 or -21 | γc-cytokines inhibited (γc-cytokines; summary statements, BNZ132-2 and -3 data not shown): specifically inhibits IL-2, IL-15 and IL-9; also recorded: restricted to IL-2, -15, and -9 | inhibition of IL-9 signal (phosphorylation, STAT5) (mouse IL-9 signal): comprehensively inhibited | inhibition of IL-15 signaling (phosphorylation of key signaling molecules) [1]: comprehensively inhibited; also recorded: near-complete inhibition | inhibition of IL-2-induced proliferation of NK92 cells (human IL-2): dose-dependent manner; also recorded: dose-dependent inhibition
